Source: publication PMC8740820 (Toxicology and applied pharmacology, 2014)
“Also recorded” adds a separate entry of the source. Like-named read-outs stand apart in the source and are kept apart here. Each block holds one molecule with its values, some of them ahead of it.

What was measured:
[1] = target: T1, zfERβ1 (Danio rerio, UniProt Q5PR29); details: for agonistic activity on zfERβ1 (in words): HELN-zfERβ1; for EC50: read-out: zfERβ1 EC50
[2] = target: T2, zfERβ2 (Danio rerio, UniProt Q7ZU32); details: for agonistic activity on zfERβ2 (in words): HELN-zfERβ2; for EC50: read-out: zfERβ2 EC50
[3] = target: T1, zfERβ1; assay type: cell-based, zebrafish; details: HELN-zfERβ1
[4] = target: T3, zfERα (Danio rerio, UniProt P57717); test: HELN-zfERα transcriptional inhibition; assay type: cell-based, zebrafish
T3 sequence (P57717 1-569): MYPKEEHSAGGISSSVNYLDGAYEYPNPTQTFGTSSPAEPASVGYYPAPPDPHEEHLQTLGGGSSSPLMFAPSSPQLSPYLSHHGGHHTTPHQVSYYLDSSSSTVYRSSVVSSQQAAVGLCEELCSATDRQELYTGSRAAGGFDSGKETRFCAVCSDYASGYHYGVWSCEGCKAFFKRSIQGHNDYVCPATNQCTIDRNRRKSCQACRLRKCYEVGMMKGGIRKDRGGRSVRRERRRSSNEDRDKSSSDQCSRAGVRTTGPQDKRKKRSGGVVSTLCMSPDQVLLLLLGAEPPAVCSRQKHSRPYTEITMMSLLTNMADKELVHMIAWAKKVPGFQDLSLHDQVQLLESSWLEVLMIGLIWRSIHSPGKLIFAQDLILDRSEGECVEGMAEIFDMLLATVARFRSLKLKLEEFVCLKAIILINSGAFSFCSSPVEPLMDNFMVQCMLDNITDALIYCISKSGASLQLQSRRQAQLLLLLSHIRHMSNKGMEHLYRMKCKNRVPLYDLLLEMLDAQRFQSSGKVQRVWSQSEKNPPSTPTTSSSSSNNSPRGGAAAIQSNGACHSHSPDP

[5] = target: T2, zfERβ2; test: HELN-zfERβ2 transcriptional inhibition; assay type: cell-based, zebrafish
[6] = target: T3, zfERα; test: HELN-zfERα luciferase transactivation assay; details: for potency profile among zfER subtypes: Supplementary Fig. 2A and data not shown
[7] = target: T4, hERα (Homo sapiens, UniProt P03372); details: HELN-hERα compared to hERβ, ref Escande et al., 2006, cited from earlier work
T4 sequence (P03372 1-595): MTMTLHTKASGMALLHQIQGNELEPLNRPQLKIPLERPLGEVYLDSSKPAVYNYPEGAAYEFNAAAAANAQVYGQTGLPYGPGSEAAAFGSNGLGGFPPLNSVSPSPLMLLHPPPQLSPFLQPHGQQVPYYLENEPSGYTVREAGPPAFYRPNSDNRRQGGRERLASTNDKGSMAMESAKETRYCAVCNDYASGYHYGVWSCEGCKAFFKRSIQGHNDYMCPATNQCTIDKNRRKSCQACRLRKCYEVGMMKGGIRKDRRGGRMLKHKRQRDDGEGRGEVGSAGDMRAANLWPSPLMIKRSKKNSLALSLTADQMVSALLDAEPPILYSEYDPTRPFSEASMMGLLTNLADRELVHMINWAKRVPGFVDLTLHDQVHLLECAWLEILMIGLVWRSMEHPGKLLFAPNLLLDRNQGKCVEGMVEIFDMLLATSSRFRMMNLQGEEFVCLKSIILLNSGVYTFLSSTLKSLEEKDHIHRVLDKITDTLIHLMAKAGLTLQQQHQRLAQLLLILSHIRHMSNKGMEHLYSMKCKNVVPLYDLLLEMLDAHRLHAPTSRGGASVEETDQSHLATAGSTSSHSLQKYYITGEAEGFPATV

[8] = target: T3, zfERα; details: zebrafish liver-derived cell lines; ref Cosnefroy et al. (2012); cited from earlier work
[9] = target: T1, zfERβ1; test: cell-based; details: zfERβ1 EC50, HELN-zfERβ1, 28 °C
[10] = target: T2, zfERβ2; test: cell-based; details: zfERβ2 EC50, HELN-zfERβ2, 28 °C
[11] = test system: 5×ERE:GFP reporter; details: 5×ERE:GFP zebrafish larvae, cited from earlier work; for tissue of GFP expression: ref Gorelik et al., 2014
[12] = target: hERβ (Homo sapiens, UniProt Q92731); details: ref Escande et al., 2006; cited from earlier work
Sequence of hERβ (Q92731 whole entry): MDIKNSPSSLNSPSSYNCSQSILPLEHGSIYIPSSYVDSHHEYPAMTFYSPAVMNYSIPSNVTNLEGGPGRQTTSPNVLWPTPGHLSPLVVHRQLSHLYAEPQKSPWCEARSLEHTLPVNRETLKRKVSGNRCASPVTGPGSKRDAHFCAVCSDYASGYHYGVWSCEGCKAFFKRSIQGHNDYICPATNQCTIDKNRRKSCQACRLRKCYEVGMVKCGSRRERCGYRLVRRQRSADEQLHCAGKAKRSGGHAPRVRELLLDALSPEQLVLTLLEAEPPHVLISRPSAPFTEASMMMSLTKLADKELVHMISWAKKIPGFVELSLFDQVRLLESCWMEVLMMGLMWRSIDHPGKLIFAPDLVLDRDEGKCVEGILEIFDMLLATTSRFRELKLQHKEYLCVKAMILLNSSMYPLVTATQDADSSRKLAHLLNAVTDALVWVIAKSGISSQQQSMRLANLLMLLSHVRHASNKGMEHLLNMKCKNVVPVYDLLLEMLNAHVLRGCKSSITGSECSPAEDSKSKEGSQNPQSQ

SMILES: CC(C)(C)CC(C)(C)c1ccc(O)cc1 [4-Tert-octylphenol, 4-tert-octylphenol]
- agonistic activity on zfERβ1 (in words) [1]: full agonists
- agonistic activity on zfERβ2 (in words) [2]: partial agonists

- antagonistic activity on zfERβ1 (in words) [3]: full antagonistic activity
- agonistic activity on zfERβ1 (in words) [1]: No agonistic activity
- antagonistic activity on zfERα (in words) [4]: full antagonistic activity
- antagonistic activity on zfERβ2 (in words) [5]: full antagonistic activity
- agonistic activity on zfERα (in words) [6]: No agonistic activity
- agonistic activity on zfERβ2 (in words) [2]: No agonistic activity
SMILES: CCC(=C(c1ccc(O)cc1)c1ccc(OCCN(C)C)cc1)c1ccccc1 [4OH-tamoxifen, 1-[p-dimethylaminoethoxyphenyl]-1-(4-hydroxyphenyl)-2-phenyl-1-butene]

SMILES: C[C@]12CC[C@@H]3c4ccc(O)cc4CC[C@H]3[C@@H]1C[C@H]1OC(=O)C[C@]12O [16α-LE2, 3,17-Dihydroxy-19-nor-17α-pregna-1,3,5(10)-triene-21,16α-lactone]
- fold higher potency zfERα compared to zfERβ1 ([6]; transactivation, 28 °C): approximately 429 fold
- fold higher potency zfERα compared to zfERβ2 ([6]; transactivation, 28 °C): ~115 fold
- fold potency/selectivity in reporter gene activation hERα over hERβ [7]: over 1000 fold
- fold potency/selectivity in reporter gene activation hERα over hERβ ([7]; listed as 16α-E2): 1000 fold

SMILES: O=C(c1ccc(O)cc1O)c1ccc(O)cc1O [BP2, 2,2′,4,4′-tetrahydroxybenzophenone]
- fold higher potency zfERα compared to zfERβ1 [8]: ~2 fold
- fold higher potency zfERα compared to zfERβ2 [8]: approximately 1.36 fold
- agonistic activity on zfERβ1 (in words) [1]: full agonist
- EC50 [9]: ~0.803 µM
- agonistic activity on zfERα (in words) ([6]; HELN-zfERα): full agonist
- fold higher potency zfERα compared to zfERβ1 ([6]; transactivation, 28 °C): 3 fold
- EC50 ([6]; zfERα EC50, HELN-zfERα, 28 °C): ~251 nM
- agonistic activity on zfERβ2 (in words) [2]: full agonist
- fold higher potency zfERβ2 compared to zfERβ1 ([2]; transactivation, 28 °C): 3 fold
- EC50 [10]: ~233 nM

- agonistic activity on zfERβ1 (in words) [1]: partial agonist
- EC50 ([9]; text value in μM): 1.89 µM
- agonistic activity on zfERα (in words) ([6]; HELN-zfERα): partial agonist
- agonistic activity on zfERβ2 (in words) [2]: partial agonist
SMILES: CC(C)(c1ccc(O)cc1)c1ccc(O)cc1 [BPA, bisphenol A]
- tissue of GFP expression [11]: preferentially induced GFP expression in the heart valves

SMILES: N#CC(Cc1ccc(O)cc1)c1ccc(O)cc1 (stereo not shown) [DPN, 2,3-bis(4-hydroxyphenyl)-propionitrile]
- tissue of GFP expression [11]: preferentially induced GFP expression in the heart valves

SMILES: C[C@]12CC[C@@H]3c4ccc(O)cc4CC[C@H]3[C@@H]1CCC2=O [E1, 1,3,5[10]-estratriene-3-ol-17-one]
- EC50 [10]: 12.1 nM

SMILES: C#C[C@]1(O)CC[C@H]2[C@@H]3CCc4cc(O)ccc4[C@H]3CC[C@@]21C [EE2, 17α-ethynyl-1,3,5[10]-estratriene-3,17β-diol]
- EC50 ([1]; HELN-zfERβ1, 37 °C): 0.673 nM
- EC50 ([6]; read-out: zfERα EC50, HELN-zfERα, 31 °C): 0.127 nM
- EC50 ([6]; read-out: zfERα EC50, HELN-zfERα, 34 °C): 0.19 nM
- EC50 ([6]; read-out: zfERα EC50, HELN-zfERα, 37 °C): 0.947 nM
- EC50 ([2]; HELN-zfERβ2, 28 °C): ~0.031 nM
- EC50 ([2]; HELN-zfERβ2, 37 °C): ~0.197 nM

SMILES: O=c1c(-c2ccc(O)cc2)coc2cc(O)cc(O)c12 [Genistein, 40,5,7-trihydroxyisoflavone]
- tissue of GFP expression [11]: preferentially induced GFP expression in the heart valves

SMILES: C[C@]12CC[C@@H]3c4ccc(O)cc4C[C@@H](CCCCCCCCC[S+]([O-])CCCC(F)(F)C(F)(F)F)[C@H]3[C@@H]1CC[C@@H]2O (stereo partly drawn) [ICI 182,780, 7α,17β-[9[(4,4,5,5,5-pentafluoropentyl)sulfinyl]nonyl]estra-1,3,5(10)-triene-3,17-diol]
- antagonistic activity on zfERβ1 (in words) [3]: full antagonistic activity
- agonistic activity on zfERβ1 (in words) [1]: No agonistic activity
- antagonistic activity on zfERα (in words) [4]: full antagonistic activity
- IC50 ([4]; read-out: zfERα IC50, together with 1 nM E2, 28 °C): 3 nM
- antagonistic activity on zfERβ2 (in words) [5]: full antagonistic activity
- agonistic activity on zfERα (in words) ([6]; HELN-zfERα): No agonistic activity
- agonistic activity on zfERβ2 (in words) [2]: No agonistic activity
- effect on E2-induced fluorescence in liver ([11]; ref Gorelik and Halpern., 2011): reduce the E2-induced fluorescence in liver

SMILES: O=C1C[C@@H](c2ccc(O)cc2)Oc2cc(O)ccc21 [Liquiritigenin, liquiritigenin]
- agonistic activity on zfERβ1 (in words) [1]: did not activate zfERβ1 at all
- EC50 ([6]; read-out: zfERα EC50, HELN-zfERα, 28 °C): 563 nM

SMILES: Cc1c(-c2ccc(O)cc2)nn(-c2ccc(O)cc2)c1-c1ccc(OCCN2CCCCC2)cc1.Cl.Cl [MPP, 1,3-bis (4-hydroxyphenyl)-4-methyl-5-[4-(2-piperidinylethoxy)phenol]-1H-pyrazole dihydrochloride]
- antagonistic activity on zfERβ1 (in words) [3]: slight zfERβ1 selectivity

- antagonistic activity on zfERβ1 (in words) [3]: partially antagonize
- antagonistic activity on zfERα (in words) [4]: full antagonistic activity
- antagonistic activity on zfERβ2 (in words) [5]: partially antagonize
SMILES: CCCc1c(-c2ccc(O)cc2)nn(-c2ccc(O)cc2)c1-c1ccc(O)cc1 [PPT, 4,4′,4″-(4-Propyl-[^1H]-pyrazole-1,3,5-triyl)trisphenol]
- agonistic activity on zfERβ1 (in words) [1]: partially activated; also recorded: slightly activated
- agonistic activity on zfERα (in words) ([6]; HELN-zfERα): did not activate zfERα at all; also recorded: devoid of agonistic activity
- agonistic activity on zfERβ2 (in words) [2]: partially activated; also recorded: slightly activated
- agonistic activity on hERβ (in words) [12]: unable to activate hERβ
- tissue of GFP expression [11]: GFP labeling of only the larval liver

SMILES: C[C@H]1CCCC(=O)CCCCCc2cc(O)cc(O)c2C(=O)O1 [zearalanone]
- potency profile among zfER subtypes [6]: zfERα potency > zfERβ1 potency ≥ β2 potency

SMILES: C[C@H]1CCCC(=O)CCC/C=C/c2cc(O)cc(O)c2C(=O)O1 [zearalenone]
- potency profile among zfER subtypes [6]: zfERα potency > zfERβ1 potency ≥ β2 potency

SMILES: C[C@H]1CCC[C@H](O)CCCCCc2cc(O)cc(O)c2C(=O)O1 [α-Zearalanol, α-zearalanol]
- EC50 ([1]; HELN-zfERβ1, 28 °C): 0.71 nM

SMILES: C[C@H]1CCC[C@H](O)CCC/C=C/c2cc(O)cc(O)c2C(=O)O1 [α-Zearalenol, α-zearalenol]
- potency profile among zfER subtypes [6]: zfERα potency > zfERβ1 potency ≥ β2 potency

SMILES: C[C@H]1CCC[C@@H](O)CCCCCc2cc(O)cc(O)c2C(=O)O1 [β-zearalanol]
- potency profile among zfER subtypes [6]: zfERα potency > zfERβ1 potency ≥ β2 potency

SMILES: C[C@H]1CCC[C@@H](O)CCC/C=C/c2cc(O)cc(O)c2C(=O)O1 [β-zearalenol]
- potency profile among zfER subtypes [6]: zfERα potency > zfERβ1 potency ≥ β2 potency
